Reference: PMC8698454, “Anti-Colonization Effect of Au Surfaces with Self-Assembled Molecular Monolayers Functionalized with Antimicrobial Peptides on S. epidermidis” (Antibiotics, 2021)
Converted amounts (≈) assume the structure as drawn. Read-outs that look alike come from different tables or passages of the source. Where a SMILES comes first, the peptide text is derived from it. [ ]: non-standard residue; d: D form. Lys(N3) = [N-]=[N+]=NCCCC[C@H](N)C(=O)O

Assays:
[1] = system: Gram-positive bacteria; type: cell-based, S. aureus and S. epidermidis
Protocol: (§1) The minimal inhibitory concentration (MIC) of peptides 1a, 1b, 2a, and 2b were determined by broth microdilution according to the Clinical Laboratory Standard Institute (CLSI) method […]-A9. The MICs of the peptides 1c, 1d, 2c, and 2d were determined by broth dilution according to the European Committee for Antimicrobial Susceptibility Testing (EUCAST). Final concentrations of 0.5-256 μg/mL were tested against a panel of reference bacteria-S. aureus (ATCC 9144), S. epidermidis (1457), E. coli (ATCC 25922), and P. aeruginosa (ATCC 27853). Each strain was tested in biological triplicate. The MIC values were defined as the lowest concentration of the peptides resulting in no visual growth.

[2] = system: Gram-negative bacteria; type: cell-based, E. coli and P. aeruginosa
Protocol: as §1

[3] = system: Staphylococcus aureus ATCC 9144; type: cell-based; conditions: for Antimicrobial Activity (MIC) S. aureus: ATCC 9144; for MIC S. aureus ATCC 9144: Table S3
Protocol: as §1

[4] = system: Pseudomonas aeruginosa ATCC 27853; type: cell-based; conditions: for Antimicrobial Activity (MIC) P. aeruginosa: ATCC 27853; for MIC P. aeruginosa ATCC 27853: Table S3
Protocol: as §1

[5] = system: Escherichia coli ATCC 25922; type: cell-based; conditions: for Antimicrobial Activity (MIC) E. coli: ATCC 25922; for MIC E. coli ATCC 25922: Table S3
Protocol: as §1

[6] = system: Staphylococcus epidermidis 1457; type: cell-based; conditions: for MIC S. epidermidis 1457: Table S3
Protocol: as §1

[7] = technical replicate 1, biological replicate BR1
[8] = technical replicate 1, biological replicate BR2
[9] = technical replicate 1, biological replicate BR3
[10] = technical replicate 2, biological replicate BR1
[11] = technical replicate 2, biological replicate BR2
[12] = technical replicate 2, biological replicate BR3
[13] = technical replicate 3, biological replicate BR1
[14] = technical replicate 3, biological replicate BR2
[15] = technical replicate 3, biological replicate BR3
[16] = broth microdilution CLSI M07-A9 (1a,1b,2a,2b) or broth dilution EUCAST (1c,1d,2c,2d), 0.5-256 µg/mL tested, biological triplicate, no visual growth

Compound: [N-]=[N+]=NCCCC[C@H](NC(=O)[C@H](Cc1ccccc1)NC(=O)[C@H](CCCNC(=N)N)NC(=O)[C@H](Cc1c[nH]c2ccccc12)NC(=O)[C@H](Cc1c[nH]c2ccccc12)NC(=O)[C@@H](N)CCCNC(=N)N)C(N)=O [1c] (H-RWWRF[Lys(N3)]-NH2)
- MIC against Gram-positive bacteria [1]: 16 to 32 µg/mL
- MIC against Gram-negative bacteria [2]: 64 µg/mL (≈ 63.8 µM)
- Antimicrobial Activity (MIC) S. aureus [3]: 32 µg/mL
- MIC S. aureus ATCC 9144 [3, 7]: 32 µg/mL (≈ 31.9 µM)
- MIC S. aureus ATCC 9144 [3, 8]: 32 µg/mL (≈ 31.9 µM)
- MIC S. aureus ATCC 9144 [3, 9]: 32 µg/mL (≈ 31.9 µM)
- MIC S. aureus ATCC 9144 [3, 10]: 32 µg/mL (≈ 31.9 µM)
- MIC S. aureus ATCC 9144 [3, 11]: 32 µg/mL (≈ 31.9 µM)
- MIC S. aureus ATCC 9144 [3, 12]: 32 µg/mL (≈ 31.9 µM)
- MIC S. aureus ATCC 9144 [3, 13]: 32 µg/mL (≈ 31.9 µM)
- MIC S. aureus ATCC 9144 [3, 14]: 32 µg/mL (≈ 31.9 µM)
- MIC S. aureus ATCC 9144 [3, 15]: 32 µg/mL (≈ 31.9 µM)
- Antimicrobial Activity (MIC) P. aeruginosa [4]: 64 µg/mL
- MIC P. aeruginosa ATCC 27853 [4, 7]: 64 µg/mL (≈ 63.8 µM)
- MIC P. aeruginosa ATCC 27853 [4, 8]: 64 µg/mL (≈ 63.8 µM)
- MIC P. aeruginosa ATCC 27853 [4, 9]: 32 µg/mL (≈ 31.9 µM)
- MIC P. aeruginosa ATCC 27853 [4, 10]: 64 µg/mL (≈ 63.8 µM)
- MIC P. aeruginosa ATCC 27853 [4, 11]: 64 µg/mL (≈ 63.8 µM)
- MIC P. aeruginosa ATCC 27853 [4, 12]: 32 µg/mL (≈ 31.9 µM)
- MIC P. aeruginosa ATCC 27853 [4, 13]: 64 µg/mL (≈ 63.8 µM)
- MIC P. aeruginosa ATCC 27853 [4, 14]: 64 µg/mL (≈ 63.8 µM)
- MIC P. aeruginosa ATCC 27853 [4, 15]: 32 µg/mL (≈ 31.9 µM)
- Antimicrobial Activity (MIC) E. coli [5]: 64 µg/mL
- MIC E. coli ATCC 25922 [5, 7]: 32 µg/mL (≈ 31.9 µM)
- MIC E. coli ATCC 25922 [5, 8]: 64 µg/mL (≈ 63.8 µM)
- MIC E. coli ATCC 25922 [5, 9]: 32 µg/mL (≈ 31.9 µM)
- MIC E. coli ATCC 25922 [5, 10]: 64 µg/mL (≈ 63.8 µM)
- MIC E. coli ATCC 25922 [5, 11]: 64 µg/mL (≈ 63.8 µM)
- MIC E. coli ATCC 25922 [5, 12]: 32 µg/mL (≈ 31.9 µM)
- MIC E. coli ATCC 25922 [5, 13]: 64 µg/mL (≈ 63.8 µM)
- MIC E. coli ATCC 25922 [5, 14]: 64 µg/mL (≈ 63.8 µM)
- MIC E. coli ATCC 25922 [5, 15]: 32 µg/mL (≈ 31.9 µM)
- Antimicrobial Activity (MIC) S. epidermidis [6]; 1457: 16 µg/mL
- MIC S. epidermidis 1457 [6, 7]: 16 µg/mL (≈ 15.9 µM)
- MIC S. epidermidis 1457 [6, 8]: 16 µg/mL (≈ 15.9 µM)
- MIC S. epidermidis 1457 [6, 9]: 16 µg/mL (≈ 15.9 µM)
- MIC S. epidermidis 1457 [6, 10]: 16 µg/mL (≈ 15.9 µM)
- MIC S. epidermidis 1457 [6, 11]: 16 µg/mL (≈ 15.9 µM)
- MIC S. epidermidis 1457 [6, 12]: 16 µg/mL (≈ 15.9 µM)
- MIC S. epidermidis 1457 [6, 13]: 16 µg/mL (≈ 15.9 µM)
- MIC S. epidermidis 1457 [6, 14]: 16 µg/mL (≈ 15.9 µM)
- MIC S. epidermidis 1457 [6, 15]: 16 µg/mL (≈ 15.9 µM)

Compound: N3-PEG200-RBBRF [2a, azidopeptide N3-PEG200-RBBRF, B = biphenylalanine, amidated C-terminus]
- MIC against Gram-positive bacteria ([1]; text summary over S. aureus ATCC 9144 and S. epidermidis 1457): 8 µg/mL
- MIC against Gram-negative bacteria ([2]; text summary over E. coli ATCC 25922 and P. aeruginosa ATCC 27853): 64 µg/mL
- Antimicrobial Activity (MIC) S. aureus ([3]; broth microdilution CLSI M07-A9 (1a,1b,2a,2b) or broth dilution EUCAST (1c,1d,2c,2d), 0.5-256 µg/mL tested, biological triplicate, lowest concentration with no visual growth): 8 µg/mL
- MIC S. aureus ATCC 9144 [3, 7]: 8 µg/mL
- MIC S. aureus ATCC 9144 [3, 8]: 8 µg/mL
- MIC S. aureus ATCC 9144 [3, 9]: 8 µg/mL
- MIC S. aureus ATCC 9144 [3, 10]: 8 µg/mL
- MIC S. aureus ATCC 9144 [3, 11]: 8 µg/mL
- MIC S. aureus ATCC 9144 [3, 12]: 8 µg/mL
- MIC S. aureus ATCC 9144 [3, 13]: 8 µg/mL
- MIC S. aureus ATCC 9144 [3, 14]: 8 µg/mL
- MIC S. aureus ATCC 9144 [3, 15]: 8 µg/mL
- Antimicrobial Activity (MIC) P. aeruginosa [4, 16]: 64 µg/mL
- MIC P. aeruginosa ATCC 27853 [4, 7]: 64 µg/mL
- MIC P. aeruginosa ATCC 27853 [4, 8]: 64 µg/mL
- MIC P. aeruginosa ATCC 27853 [4, 9]: 64 µg/mL
- MIC P. aeruginosa ATCC 27853 [4, 10]: 64 µg/mL
- MIC P. aeruginosa ATCC 27853 [4, 11]: 64 µg/mL
- MIC P. aeruginosa ATCC 27853 [4, 12]: 64 µg/mL
- MIC P. aeruginosa ATCC 27853 [4, 13]: 64 µg/mL
- MIC P. aeruginosa ATCC 27853 [4, 14]: 64 µg/mL
- MIC P. aeruginosa ATCC 27853 [4, 15]: 64 µg/mL
- Antimicrobial Activity (MIC) E. coli [5, 16]: 64 µg/mL
- MIC E. coli ATCC 25922 [5, 7]: 64 µg/mL
- MIC E. coli ATCC 25922 [5, 8]: 64 µg/mL
- MIC E. coli ATCC 25922 [5, 9]: 64 µg/mL
- MIC E. coli ATCC 25922 [5, 10]: 64 µg/mL
- MIC E. coli ATCC 25922 [5, 11]: 64 µg/mL
- MIC E. coli ATCC 25922 [5, 12]: 64 µg/mL
- MIC E. coli ATCC 25922 [5, 13]: 64 µg/mL
- MIC E. coli ATCC 25922 [5, 14]: 64 µg/mL
- MIC E. coli ATCC 25922 [5, 15]: 64 µg/mL
- MIC S. epidermidis 1457 [6, 7]: 4 µg/mL
- MIC S. epidermidis 1457 [6, 8]: 8 µg/mL
- MIC S. epidermidis 1457 [6, 9]: 8 µg/mL
- MIC S. epidermidis 1457 [6, 10]: 4 µg/mL
- MIC S. epidermidis 1457 [6, 11]: 8 µg/mL
- MIC S. epidermidis 1457 [6, 12]: 8 µg/mL
- MIC S. epidermidis 1457 [6, 13]: 4 µg/mL
- MIC S. epidermidis 1457 [6, 14]: 8 µg/mL
- MIC S. epidermidis 1457 [6, 15]: 8 µg/mL
- Antimicrobial Activity (MIC) S. epidermidis ([6]; strain 1457, broth microdilution CLSI M07-A9 (1a,1b,2a,2b) or broth dilution EUCAST (1c,1d,2c,2d), 0.5-256 µg/mL tested, biological triplicate, no visual growth): 8 µg/mL
